Experiments:
[1] = test system: HuH-7 hepatocellular carcinoma cells; test: Methylene blue staining proliferation assay (MBS); type: cell-based; conditions: Homo sapiens, 72 hours after compound addition, read-out: HUH7 proliferation (nM) MBS
Description: Methylene blue staining proliferation assay (MBS): The effect of the compound on cell proliferation is assessed using HuH-7 hepatocellular carcinoma cells obtained from the Japanese Collection of Research Bioresources Cell Bank (Cat# JCRB0403) and cultured in the vendor-recommended medium (DMEM high glucose (Amimed Cat#1-26F01-I), 10% foetal calf serum (Invitrogen Cat#16140-071), 1 mM sodium pyruvate (Amimed Cat#5-60F00-H), 1× Penicillin/Streptomycin (Amimed Cat#4-01F00-H)) at 37° C. in a humidified 5% CO2 incubator. Specifically, 5000 cells/well were seeded in 96-well tissue culture plates (TPP Cat#92696) in a total media volume of 100 μl/well and increasing compound dilutions or DMSO were added 24 hours thereafter in triplicates. 72 hours after compound addition, cells were fixed by adding 25 μL/well of 20% glutaraldehyde (Sigma Aldrich Cat# G400-4) and incubated for 10 minutes at room temperature. Cells were washed three times with H2O, 200 μL/well and stained with 100 μL/well 0.05% methylene blue (ABCR GmbH Cat# AB117904) for 10 minutes at room temperature. Cells were washed 3 times with H2O, 200 μL/well and then lysed by adding 200 μL/well of 3% HCl (Fluka Cat#84422) for 30 minutes at room temperature with shaking. Optical density was measured at A650 nm. […]

[2] = test system: HuH-7 hepatocellular carcinoma cells; test: CellTiter Glo (CTG) proliferation assay; type: cell-based; conditions: Homo sapiens, Huh-7, 72 h; 3 days incubation; half-maximal growth inhibition; read-out: HUH7 proliferation (nM) CTG
Description: CellTiter Glo (CTG) assay: The functional effect of compounds on cell proliferation is assessed using HuH-7 hepatocellular carcinoma cells obtained from the Japanese Collection of Research Bioresources Cell Bank (Cat# JCRB0403) and cultured in the vendor-recommended medium (DMEM high glucose (Amimed Cat#1-26F01-I), 10% foetal calf serum (Invitrogen Cat#16140-071), 1 mM sodium pyruvate (Amimed Cat#5-60F00-H), 1× Penicillin/Streptomycin (Amimed Cat#4-01F00-H)) at 37° C. in a humidified 5% CO2 incubator. Compound-mediated suppression of cell proliferation/viability is assessed by quantification of cellular ATP levels using the CellTiter-Glo (CTG) reagent (Promega, Cat# G7573). […] Dose-response effects are assessed by 3-fold serial dilutions of the test compound, starting at 10 μM. Following incubation of the cells for 3 days at 37° C. and 5% CO2, the effect of inhibitors on cell viability is quantified following addition of 50 μl CTG and luminescence measurement (integration time: 500 ms) as per vendor manual, using a correspondingly equipped multi-mode plate reader (M200Pro, TECAN, Switzerland). For data analysis, the assay background value determined in wells containing medium, but no cells, is subtracted from all data points. […] Compound concentrations leading to half-maximal growth inhibition ([…]) are determined using standard four parameter curve fitting (XLfit 5.2., IDBS, UK).

IC50 [1]: 12 nM
IC50 [2]: 60.9 nM
SMILES: COCCNc1cc(NC(=O)N2CCCc3cc(CN4CCN(C)CC4=O)c(C=O)nc32)ncc1C#N [Example 83, N-(5-cyano-4-((2-methoxyethyl)amino)pyridin-2-yl)-7-formyl-6-((4-methyl-2-oxopiperazin-1-yl)methyl)-3,4-dihydro-1,8-naphthyridine-1(2H)-carboxamide]
